The subject of data set [1] is human cytomegalovirus (HCMV). In words: anti-HCMV screening test (cytopathogenic effect) in HELF cell cultures. In kind it is cell-based. To be noted: Human betaherpesvirus 5; HCMV-infected HELF cells, 96-well plates; concentration giving 50% inhibition of virus activity (CPE, Neutral Red). On the procedure:
The anti-HCMV action was determined in a screening test system in 96-well microtitre plates with the assistance of human embryonic lung fibroblasts (HELF) cell cultures. The affect of these substances on the extent of the cytopathogenic effect was determined by comparison with the reference substance ganciclovir (Cymevene^R sodium), a clinically approved anti-HCMV chemotherapeutic agent (EC50, corresponding to the effective concentration at which a 50% inhibition of virus activity is achieved).
The substances dissolved (50 mM) in DMSO (dimethyl sulphoxide) are investigated on microtitre plates (96-well) in duplicate determinations (4 substances/plate). Toxic and cytostatic effects of the substances are also detected thereby (CC50, corresponding to the concentration at which half the cells are destroyed owing to administration of the substance). […]
After this time, the cell lawn in the virus controls free of substance, starting from 50-100 infectious centres, is completely destroyed by the cytopathogenic effect of the HCMV (100% CPE). After staining with Neutral Red and fixing with formalin/methanol, the plates are evaluated using a projection microscope (plaque viewer).

The nature of data set [2]: toxic and cytostatic effects on HELF cells in the anti-HCMV screening test. In kind it is cell-based. The settings on record: human, concentration at which half the cells are destroyed. On the procedure:
The substances dissolved (50 mM) in DMSO (dimethyl sulphoxide) are investigated on microtitre plates (96-well) in duplicate determinations (4 substances/plate). Toxic and cytostatic effects of the substances are also detected thereby (CC50, corresponding to the concentration at which half the cells are destroyed owing to administration of the substance). After the appropriate substance dilutions (1:2) on the microtitre plate, a suspension of 50-100 HCMV-infected HELF cells and […] uninfected HELF cells in Eagle's MEM with 10% fetal calf serum are put in each well, and the plates are incubated at 37° C. in a CO2 incubator for several days. After this time, the cell lawn in the virus controls free of substance, starting from 50-100 infectious centres, is completely destroyed by the cytopathogenic effect of the HCMV (100% CPE). After staining with Neutral Red and fixing with formalin/methanol, the plates are evaluated using a projection microscope (plaque viewer).

This passage reports EC50 and CC50 results from US6498183B1, “Substituted indole sulfonamides as anitviral agents” (Bayer Aktiengesellschaft, priority 1999, dated 2002).

For the molecule `CCn1ccc2cc(S(=O)(=O)Nc3cccc(NC(=O)C(C)(C)CF)c3)ccc21` [Example 1, N-[(N-Ethylindole)-5-sulphonyl]-N′-(3-fluoro-2,2-dimethylpropanoyl)-1,3-diamino-benzene], in data set [1], the half-maximal effective concentration (EC50) turned out to be 0.055 µM. Besides, the CC50 in data set [2] was found to be 15.6 µM.
The like results for `CC(=O)n1ccc2cc(S(=O)(=O)Nc3ccc(C(=O)NC(C)(C)C)cc3)ccc21` [Example 2, 4-[N-Acetylindole-5-sulphonylamino]-N-(tert-butyl)benzamide] were, in that order, 0.39 µM and 86 µM.
